Test results published in paper PMC6838683, “Discovery of Human Signaling Systems: Pairing Peptides to G Protein-Coupled Receptors” (Cell, 2019).
Residues, ends and D or L forms follow the SMILES beside them.

Assays:
GPR55 [1] = target: T1, GPR55 (Homo sapiens, UniProt Q9Y2T6); assay: Real-time receptor internalization (TR-FRET), concentration-response; format: cell-based; set-up: hIL-2Ra signal peptide (N); expressed in transfected cells
Method: (§1) 48 hr prior to parallel assaying, SNAP-tagged oGPCR cells were plated (10,000 cells/well) in fibronectin-coated 384-well Epic biosensor microplates (Corning) and poly-D-lysine coated white 384-well plates (for internalization assays). SNAP- GLP-1 receptor was plated alongside orphan receptor cells as an internal assay control for internalization assays. Receptor-expression was induced with 0.1 μg/ml doxycycline.
A TR-FRET real-time internalization assay was used to examine peptide-dependent changes in orphan receptor localization as described previously ([Foster and Bräuner-Osborne, 2018]). Surface-expressed SNAP-tagged receptors were labeled with a cell-impermeable luminescent terbium cryptate (100 nM SNAP Lumi4-Tb; Cisbio, France) for 1 hr at 37°C. Cells were washed to remove excess terbium and incubated with fluorescein-O-acetic acid (100 μM; Sigma Aldrich) for 5 min at 37°C. Peptides were added as for DMR assays, and internalization responses were recorded for 60 min at 37°C using an EnVision 2104 Multimode plate reader (PerkinElmer). 100 nM GLP-1 was used as a positive control for SNAP-GLP1R internalization. Real-time internalization responses were calculated based on TR-FRET (excitation 340 nm; emission 520 nm and 615 nm), and were expressed as the ratio between donor (terbium) and acceptor (fluorescein) emission. For peptide screening analysis (both DMR and internalization assays), we calculated the area under the curve from the real-time traces. […] Validation experiments for receptor internalization were performed as above. Internalization data was processed in MS-Excel and area under the curve was used to generate concentration-response curves using GraphPad Prism 7.0. Data represent mean ± standard error of the mean (SEM) from at least 3 biologically independent experiments.

GPR55 [2] = target: T1, GPR55; assay: Dynamic mass redistribution (DMR), concentration-response; format: cell-based; set-up: hIL-2Ra signal peptide (N); expressed in transfected cells; conditions: mean; for DMR assays Emax (peak or AUC): SEM and n (1-4)
Method: as §1
DMR assays provide a single integrated readout of ligand-dependent cellular response, utilizing an optical biosensor in specialized microplates to detect wavelength shifts of reflected light as it passes through the biosensor and the lower portion of the cell (∼150-200 nm). As a signal pathway agnostic approach, DMR assays are well-suited to the study of GPCRs ([Fang et al., 2008], [Schröder et al., 2011]). The mass redistribution response (Δ picometer (pm)) likely reflects a number of intracellular events, including cytoskeletal rearrangement, protein trafficking and receptor internalization. Orphan receptor-expressing cells were gently washed twice with assay buffer (HBSS with 1 mM CaCl2, 1 mM MgCl2, 20 mM HEPES, 0.01% pluronic F-68, pH 7.4) containing 0.1% DMSO and cells were equilibrated for 90 min at 22°C in the EPIC Benchtop (BT) System (Corning) to establish a stable DMR signal. After 3-5 min baseline recordings, peptides (10 μM) were added in duplicate wells using an electronic 384-channel Viaflo pipette (Integra Biosciences, Switzerland) and DMR responses were measured for 60 min at 22°C. 100 nM norepinephrine was included as an internal assay control to assess the cellular DMR response via endogenously-expressed adrenoceptors in the TREx 293 cells. Real-time data were processed using the BT to column converter MS-Excel macro (Corning) and analyzed in GraphPad Prism 7.0. DMR recordings in peptide screening experiments were buffer and solvent corrected and the area under the curve (AUC) was quantified. For subsequent validation experiments, peptides were diluted in assay buffer containing 0.1% DMSO and DMR assays were performed as above. […] Data represent mean ± standard error of the mean (SEM) from at least 3 biologically independent experiments.

[3] = receptor GPR55, mean, SEM and n (3-4), read-out: Internalization assays pEC50 (converted)
[4] = receptor GPR55, SEM and n (2-4), read-out: DMR assays pEC50 (converted)
[5] = GPR55, mean, SEM and n, read-out: pEC50, Internalization (AUC) (converted)
[6] = GPR55, SEM and n, read-out: pEC50, DMR (AUC) (converted)
[7] = receptor GPR55, mean, SEM and n (3-4)

T1 sequence (Q9Y2T6 2-319 limits assumed): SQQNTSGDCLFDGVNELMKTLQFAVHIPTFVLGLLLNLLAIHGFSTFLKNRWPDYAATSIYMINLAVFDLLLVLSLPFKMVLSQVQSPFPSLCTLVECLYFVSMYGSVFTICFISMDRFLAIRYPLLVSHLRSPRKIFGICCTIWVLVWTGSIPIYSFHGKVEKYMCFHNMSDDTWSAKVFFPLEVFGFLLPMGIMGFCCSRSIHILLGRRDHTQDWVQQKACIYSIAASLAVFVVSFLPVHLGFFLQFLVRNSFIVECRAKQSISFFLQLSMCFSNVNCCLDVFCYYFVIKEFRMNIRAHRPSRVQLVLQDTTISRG

Molecule	EC50 (GPR55 [1]; [3]) [nM]	EC50 (GPR55 [2]; [4]) [nM]	Internalization assays Emax (AUC) (GPR55 [1]; [7])	DMR assays Emax (peak or AUC) (GPR55 [2]; receptor GPR55)	other results
CC(C)C[C@H](NC(=O)[C@H](C)NC(=O)CNC(=O)[C@H](CC(C)C)NC(=O)[C@H](CCCNC(=N)N)NC(=O)[C@@H](N)CCCCN)C(=O)N[C@@H](Cc1ccccc1)C(=O)N[C@@H](CC(N)=O)C(=O)N1CCC[C@H]1C(=O)N[C@@H](Cc1ccc(O)cc1)C(=O)N[C@@H](Cc1ccccc1)C(=O)N[C@@H](CC(=O)O)C(=O)N1CCC[C@H]1C(=O)N[C@@H](CC(C)C)C(=O)N[C@@H](CCC(N)=O)C(=O)N[C@@H](Cc1c[nH]c2ccccc12)C(=O)N[C@@H](CCCCN)C(=O)N[C@@H](CC(N)=O)C(=O)N[C@@H](CO)C(=O)N[C@@H](CC(=O)O)C(=O)N[C@@H](Cc1ccccc1)C(=O)N[C@@H](CCC(=O)O)C(=O)O [143 resynthesized] (H-KRLGALFNPYFDPLQWKNSDFE-OH)	6310	3160			
CC[C@H](C)[C@H](NC(=O)CNC(=O)[C@H](CC(=O)O)NC(=O)[C@H](CO)NC(=O)[C@@H](N)Cc1cnc[nH]1)C(=O)N[C@@H](Cc1ccccc1)C(=O)N[C@H](C(=O)N[C@@H](CC(=O)O)C(=O)N[C@@H](CO)C(=O)N[C@@H](Cc1ccc(O)cc1)C(=O)N[C@@H](CO)C(=O)N[C@@H](CCCNC(=N)N)C(=O)N[C@@H](Cc1ccc(O)cc1)C(=O)N[C@@H](CCCNC(=N)N)C(=O)N[C@@H](CCCCN)C(=O)N[C@@H](CCC(N)=O)C(=O)N[C@@H](CCSC)C(=O)N[C@@H](C)C(=O)N[C@H](C(=O)N[C@@H](CCCCN)C(=O)N[C@@H](CCCCN)C(=O)N[C@@H](Cc1ccc(O)cc1)C(=O)N[C@@H](CC(C)C)C(=O)N[C@@H](C)C(=O)N[C@@H](C)C(=O)N[C@H](C(=O)N[C@@H](CC(C)C)C(=O)NCC(=O)N[C@@H](CCCCN)C(=O)N[C@@H](CCCNC(=N)N)C(=O)N[C@@H](Cc1ccc(O)cc1)C(=O)N[C@@H](CCCCN)C(=O)N[C@@H](CCC(N)=O)C(=O)N[C@@H](CCCNC(=N)N)C(=O)N[C@H](C(=O)N[C@@H](CCCCN)C(=O)N[C@@H](CC(N)=O)C(=O)N[C@@H](CCCCN)C(N)=O)C(C)C)C(C)C)C(C)C)[C@@H](C)O [168.1 (Phoenix)]		148			EC50 (GPR55 [1]; Internalization assays pEC50): 0.123 nM
CC(C)C[C@H](NC(=O)[C@H](C)NC(=O)CNC(=O)[C@H](CC(C)C)NC(=O)[C@H](CCCNC(=N)N)NC(=O)[C@@H](N)CCCCN)C(=O)N[C@@H](Cc1ccccc1)C(=O)N[C@@H](CC(N)=O)C(=O)N1CCC[C@H]1C(=O)N[C@@H](Cc1ccc(O)cc1)C(=O)N[C@@H](Cc1ccccc1)C(=O)N[C@@H](CC(=O)O)C(=O)N1CCC[C@H]1C(=O)N[C@@H](CC(C)C)C(=O)N[C@@H](CCC(N)=O)C(=O)N[C@@H](Cc1c[nH]c2ccccc12)C(=O)N[C@@H](CCCCN)C(=O)N[C@@H](CC(N)=O)C(=O)N[C@@H](CO)C(=O)N[C@@H](CC(=O)O)C(=O)N[C@@H](Cc1ccccc1)C(=O)N[C@@H](CCC(=O)O)C(=O)O [Chgb (511-532)] (H-KRLGALFNPYFDPLQWKNSDFE-OH)					EC50 (GPR55 [1]; [5]): 4680 nM; EC50 (GPR55 [2]; [6]): 2400 nM
CC[C@H](C)[C@H](NC(=O)[C@H](CC(=O)O)NC(=O)[C@@H](NC(=O)[C@H](Cc1ccc(O)cc1)NC(=O)[C@@H](NC(=O)CNC(=O)[C@H](CC(N)=O)NC(=O)[C@@H](NC(=O)[C@H](CC(C)C)NC(=O)[C@H](Cc1ccc(O)cc1)NC(=O)[C@H](CC(=O)O)NC(=O)[C@H](CC(C)C)NC(=O)[C@H](CCCNC(=N)N)NC(=O)[C@H](CO)NC(=O)[C@H](Cc1ccc(O)cc1)NC(=O)[C@H](CCCNC(=N)N)NC(=O)[C@@H](N)CCCCN)[C@@H](C)CC)[C@@H](C)CC)C(C)C)C(=O)O [MANSC (415-431)] (H-KRYSRLDYLINGIYVDI-OH)					EC50 (GPR55 [1]; [5]): 13500 nM; EC50 (GPR55 [2]; [6]): 3090 nM
CC[C@H](C)[C@H](NC(=O)CNC(=O)[C@H](CC(=O)O)NC(=O)[C@H](CO)NC(=O)[C@@H](N)Cc1c[nH]cn1)C(=O)N[C@@H](Cc1ccccc1)C(=O)N[C@H](C(=O)N[C@@H](CC(=O)O)C(=O)N[C@@H](CO)C(=O)N[C@@H](Cc1ccc(O)cc1)C(=O)N[C@@H](CO)C(=O)N[C@@H](CCCNC(=N)N)C(=O)N[C@@H](Cc1ccc(O)cc1)C(=O)N[C@@H](CCCNC(=N)N)C(=O)N[C@@H](CCCCN)C(=O)N[C@@H](CCC(N)=O)C(=O)N[C@@H](CCSC)C(=O)N[C@@H](C)C(=O)N[C@H](C(=O)O)C(C)C)[C@@H](C)O [Peptide 168.5]	75900	1	17.8	31768	
CC[C@H](C)[C@H](NC(=O)CNC(=O)[C@H](CC(=O)O)NC(=O)[C@H](CO)NC(=O)[C@@H](N)Cc1c[nH]cn1)C(=O)N[C@@H](Cc1ccccc1)C(=O)N[C@H](C(=O)N[C@@H](CC(=O)O)C(=O)N[C@@H](CO)C(=O)N[C@@H](Cc1ccc(O)cc1)C(=O)N[C@@H](CO)C(=O)N[C@@H](CCCNC(=N)N)C(=O)N[C@@H](Cc1ccc(O)cc1)C(=O)N[C@@H](CCCNC(=N)N)C(=O)N[C@@H](CCCCN)C(=O)N[C@@H](CCC(N)=O)C(=O)N[C@@H](CCSC)C(=O)N[C@@H](C)C(=O)N[C@H](C(=O)N[C@@H](CCCCN)C(=O)N[C@@H](CCCCN)C(=O)N[C@@H](Cc1ccc(O)cc1)C(=O)N[C@@H](CC(C)C)C(=O)N[C@@H](C)C(=O)N[C@@H](C)C(=O)N[C@H](C(=O)N[C@@H](CC(C)C)C(=O)NCC(=O)N[C@@H](CCCCN)C(=O)N[C@@H](CCCNC(=N)N)C(=O)N[C@@H](Cc1ccc(O)cc1)C(=O)N[C@@H](CCCCN)C(=O)N[C@@H](CCC(N)=O)C(=O)N[C@@H](CCCNC(=N)N)C(=O)N[C@H](C(=O)N[C@@H](CCCCN)C(=O)N[C@@H](CC(N)=O)C(=O)N[C@@H](CCCCN)C(=O)NCC(=O)N[C@@H](CCCNC(=N)N)C(=O)N[C@@H](CCCNC(=N)N)C(=O)N[C@H](C(=O)N[C@@H](C)C(=O)N[C@@H](Cc1ccc(O)cc1)C(=O)N[C@@H](CC(C)C)C(=O)O)[C@@H](C)CC)C(C)C)C(C)C)C(C)C)[C@@H](C)O [Peptide 168.6]	0.115	331			
CC(C)C[C@H](NC(=O)[C@@H](N)CC(=O)O)C(=O)N[C@@H](CC(C)C)C(=O)N1CCC[C@H]1C(=O)O [Peptide 213.1] (H-DLLP-OH)	195	0.00724			
C[C@H](NC(=O)[C@@H](N)Cc1c[nH]c2ccccc12)C(=O)N[C@@H](CCCNC(=N)N)C(=O)NCC(=O)N[C@@H](CS)C(=O)N[C@@H](CO)C(=O)N[C@H](C(=O)NCC(=O)N[C@@H](CC(N)=O)C(=O)O)[C@@H](C)O [Peptide 213.2] (H-WARGCSTGN-OH)	0.724	0.0676			
DLLPPRTPPYQVHISHREARGPSFRICVDFLG [Peptide 213.5]			19.6	-71711	
HSDGIFTDSYSRYRKQMAVKKYLAAVL [168 original]			32.4	312490	
KRLGALFNPYFDPLQWKNSDFE [143 original]			39.5	555860	
KRYSRLDYLINGIYVDI [114 original]			46.9	619843	
